{
  "source": "paper PMC7649969",
  "about": "“Pyrazolyl-pyrimidones inhibit the function of human solute carrier protein SLC11A2 (hDMT1) by metal chelation” (RSC Medicinal Chemistry, 2020)",
  "key": {"[1]": {"biological_target": "T1, hDMT1 (Homo sapiens, UniProt P49281)", "T1 sequence (P49281 1-568)": "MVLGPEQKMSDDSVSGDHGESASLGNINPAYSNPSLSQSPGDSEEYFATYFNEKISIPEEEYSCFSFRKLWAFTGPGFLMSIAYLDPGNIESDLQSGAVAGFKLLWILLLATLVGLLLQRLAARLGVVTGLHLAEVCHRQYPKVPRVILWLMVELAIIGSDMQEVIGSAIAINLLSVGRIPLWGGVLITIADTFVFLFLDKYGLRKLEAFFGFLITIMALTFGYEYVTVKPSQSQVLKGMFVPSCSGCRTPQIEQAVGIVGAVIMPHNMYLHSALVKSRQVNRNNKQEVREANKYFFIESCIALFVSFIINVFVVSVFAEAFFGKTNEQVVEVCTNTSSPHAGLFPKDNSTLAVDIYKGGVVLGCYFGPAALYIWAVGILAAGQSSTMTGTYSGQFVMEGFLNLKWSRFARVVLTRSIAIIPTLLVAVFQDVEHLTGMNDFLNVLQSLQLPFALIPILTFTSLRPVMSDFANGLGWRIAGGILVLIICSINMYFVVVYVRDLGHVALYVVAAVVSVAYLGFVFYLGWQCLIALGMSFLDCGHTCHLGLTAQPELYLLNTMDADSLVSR", "test": "two-electrode voltage-clamp electrophysiology of Fe2+ evoked currents in hDMT1-injected Xenopus oocytes", "format": "cell-based", "conditions": "Fe2+ 20 μM", "protocol": "Fig. 3 Characterization of Fe^2+ transport inhibition by 1 and 13 in X. laevis oocytes (collected from frogs under license number BE60/18 conceded by the Veterinärdienst des Kantons BE, Sekretariat Tierversuche). (a) Upper panel: Average ^55Fe^2+-uptake (20 μM) by hDMT1-expressing and non-injected oocytes in the absence and the presence of the indicated compounds (10 μM). Data was normalized to ^55Fe^2+-uptake (pmol min^–1) in the absence of compounds represented as mean ± SD (16–29 oocytes). Lower panel: Net uptake of ^55Fe^2+ (20 μM) by hDMT1 in the absence and the presence of the indicated compounds (10 μM). For each batch of oocytes, uptake values were corrected for unspecific iron uptake in non-injected oocytes. Data were normalized to the mean iron uptake by hDMT1 WT (pmol min^–1) and represented as mean ± SD (14–34 oocytes). (b and c) Electrophysiology. […] For each trace, recorded currents were corrected for the background currents observed without substrate. (b) Representative traces recorded with hDMT1 injected oocytes (upper panel) and non-injected oocytes (lower panel). […] Statistical differences were assessed using T-test or Mann–Whitney U test (Fe^2+-uptake by hDMT1 WT vs. non-injected oocytes or vs. compound); p > 0.05 = ns; p < 0.001 = ***.\n250 µM non-radioactive Fe2+ and 100 µM Ascorbic acid. Next, oocytes were solubilized with SDS 10% and 55Fe2+ content was determined by scintillation counting. To determine the total activity of the hDMT1-expressing oocytes, uptake of 55Fe2+ was determined also in the absence of any compound. […]\nElectrophysiology methods. […] Then, the membrane voltage was held at -50 mV (Vh), and the current (nA) required to keep Vh constant was recorded along the experiments. These currents were measured with an OC-725 amplifier (Warner Instruments), low-pass filtered at 500 Hz, digitized at 5 kHz with a Digidata 1440 data acquisition system and captured using pClamp 10 software (Axon Instruments). […]"}, "[2]": {"test": "isothermal titration calorimetry with Cd2+", "format": "binding", "conditions": "pH 7.4, 25 °C, read-out: apparent dissociation constant KD"}, "[3]": {"test": "calcein quenching (competition) assay to detect Fe2+ chelation", "conditions": "pH 5.5, 2 μM Fe2+, 1 μM calcein"}, "[4]": {"test": "solubility noted at HPLC purity determination", "format": "physicochemical", "protocol": "Table S3: Purity of the final compounds.\nCompound Retention time Purity [%] HPLC\naMethod A: in 2.2 min from 100 % A to 10 0% D, then staying at 100 % D. Method B: in 7.5 min from 10 0% A to 100 % D,"}},
  "note": "“Also recorded” adds a separate entry of the source.",
  "data": [
    {"smiles": "Cc1cc(=O)[nH]c(-n2nc3c(c2C)CCCC3)n1", "note": "[Compound 13]", "values": [
      {"measurement": "effect on hDMT1-induced currents", "setting": "[1]; compound up to 10 μM", "value": "no measurable effect on the recorded currents; also recorded: did not modulate hDMT1-induced currents"},
      {"measurement": "IC50 of inhibition of Fe2+ evoked currents", "setting": "[1]; currents at -70 mV, dose-response 0.01-10 μM", "value": "did not fit to the equation"},
      {"measurement": "Kd", "setting": "[2]", "value": 6.4, "unit": "µM"},
      {"measurement": "iron chelation in calcein competition assay", "setting": "[3]", "value": "significant level of iron chelation"}
    ]},
    {"smiles": "N=C(N)SCc1cccc2c1oc1c(CSC(=N)N)cccc12", "note": "[Compound 1, reference compound]", "values": [
      {"measurement": "IC50", "setting": "[1]; currents at -70 mV, dose-response 0.01-10 μM, read-out: IC50 of inhibition of Fe2+ evoked currents", "value": 0.14, "unit": "µM"}
    ]},
    {"smiles": "Cc1nn(-c2ccccn2)c(O)c1C(=O)Nc1cccc(C(F)(F)F)c1", "note": "[Compound 3, reference compound]", "values": [
      {"measurement": "solubility in water and acetonitrile", "setting": "[4]", "value": "not soluble in water and acetonitrile"}
    ]}
  ]
}
